Legend:
Assay in all cases: relative viability (nuclei count vs DMSO), 5 days (fraction); higher = more cells survive
[1] = compound: C1=CC=C2C(=C1)N=C(S2)C(C#N)C3=NC(=NC=C3)NCCC4=CN=CC=C4 + Cc1nc(NC(=O)N2CCC[C@H]2C(N)=O)sc1-c1ccnc(C(C)(C)C(F)(F)F)c1 [Alpelisib] (partner 2 µM)
Method in brief: (§1)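 Relative viability divides the nuclei count in treated wells by that in vehicle wells. Lung cancer cell lines were seeded in 1536-well plates, dosed by pin tool the next day, and fixed and stained after 5 days in one step with final 0.05% Triton X-100, 1% formaldehyde and 1 ug/ml Hoechst. Dosing was a single drug or a fixed anchor-drug dose plus five library-drug doses (not always all listed) in √10 steps, and values are medians of duplicate plates imaged at 4×.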

[2] = compound: C#Cc1cccc(Nc2ncnc3cc(OC)c(OCCCCCCC(=O)NO)cc23)c1 [CUDC-101] + Cc1cc(Nc2cc(N3CCN(C)CC3)nc(Sc3ccc(NC(=O)C4CC4)cc3)n2)n[nH]1 [Tozasertib] (partner 0.1 µM)
Method in brief: as §1

[3] = compound: C1=CC=C2C(=C1)N=C(S2)C(C#N)C3=NC(=NC=C3)NCCC4=CN=CC=C4 + Nc1ncn([C@H]2C[C@H](O)[C@@H](CO)O2)c(=O)n1 [Decitabine] (partner 2 µM)
Method in brief: as §1

[4] = compound: COc1cc2/c(=N/c3ccc(Br)cc3F)nc[nH]c2cc1OCC1CCN(C)CC1 [Vandetanib] + Cc1nc(NC(=O)N2CCC[C@H]2C(N)=O)sc1-c1ccnc(C(C)(C)C(F)(F)F)c1 [Alpelisib] (partner 2 µM)
Method in brief: as §1

Cell Line | relative viability ([1]; first compound 0.005 µM) | relative viability ([1]; first compound 0.01581 µM) | relative viability ([1]; first compound 0.05 µM) | relative viability ([1]; first compound 0.1581 µM) | relative viability ([1]; first compound 0.5 µM) | relative viability ([2]; first compound 0.01 µM) | relative viability ([2]; first compound 0.03162 µM) | relative viability ([2]; first compound 0.1 µM) | relative viability ([2]; first compound 0.3162 µM) | relative viability ([2]; first compound 1 µM) | relative viability ([3]; first compound 0.005 µM) | relative viability ([3]; first compound 0.01581 µM) | relative viability ([3]; first compound 0.05 µM) | relative viability ([3]; first compound 0.1581 µM) | relative viability ([3]; first compound 0.5 µM) | relative viability ([4]; first compound 0.02 µM) | relative viability ([4]; first compound 0.06325 µM) | relative viability ([4]; first compound 0.2 µM) | relative viability ([4]; first compound 0.6325 µM) | relative viability ([4]; first compound 2 µM)
NCI-H2405 | 0.75 | 0.784 | 0.734 | 0.731 | 0.839 | 0.748 | 0.809 | 0.725 | 0.756 | 0.611 | 0.658 | 0.771 | 0.737 | 0.689 | 0.725 | 0.813 | 0.405 | 0.733 | 0.958 | 0.677
NCI-H3122 | 0.676 | 0.791 | 0.819 | 0.977 | 0.852 | 0.373 | 0.451 | 0.391 | 0.321 | 0.386 | 0.333 | 0.394 | 0.492 | 0.577 | 0.441 | 0.781 | 0.756 | 0.778 | 0.765 | 0.822
PC-3 [JPC-3] | 0.935 | 1.02 | 0.96 | 1.08 | 0.954 | 0.89 | 0.847 | 0.834 | 0.61 | 0.314 | 0.952 |  | 0.758 | 0.825 | 0.762 | 1.03 | 1 | 0.982 | 0.736 | 0.507
PC-14 | 0.708 | 1.08 | 1 | 1.17 | 0.742 | 0.656 | 0.544 | 0.391 | 0.528 | 0.115 | 0.207 | 0.246 | 0.178 | 0.203 | 0.179 | 0.922 | 0.846 | 0.911 | 0.447 | 0.182
RERF-LC-KJ | 0.915 | 0.849 | 0.759 | 0.899 | 0.82 | 0.516 | 0.505 | 0.476 | 0.442 | 0.371 | 0.621 | 0.773 | 0.682 | 0.785 | 0.606 | 0.82 | 0.694 | 0.833 | 0.774 | 0.678
SK-LU-1 |  | 0.962 | 0.824 | 1.27 | 0.858 | 0.336 | 0.322 | 0.367 | 0.309 | 0.269 | 0.496 | 0.762 | 0.68 | 0.727 | 0.558 | 1.06 | 0.594 | 1.02 | 0.926 | 0.758
SK-MES-1 | 1.17 | 0.979 | 1.12 | 1.14 | 0.859 | 0.976 | 0.945 | 0.942 | 0.809 | 0.502 | 0.48 | 0.405 | 0.372 | 0.409 | 0.41 | 0.913 | 0.929 | 0.86 | 0.851 | 0.646
SW 1573 | 0.628 | 0.726 |  | 0.803 | 0.686 | 0.211 | 0.182 | 0.173 | 0.173 | 0.131 | 0.36 | 0.497 | 0.252 | 0.436 | 0.504 | 0.75 | 0.726 | 0.753 | 0.969 | 0.743
